For orientation: IC50 means the concentration at which inhibition is half-maximal. Higher therefore signals lower potency.

The values that follow come from patent EP1165534B1, “BENZOYLGUANIDINE DERIVATIVES WITH ADVANTAGEOUS PROPERTIES, METHOD FOR PRODUCING THEM AND THEIR USE IN THE PRODUCTION OF MEDICAMENTS” (Boehringer Ingelheim Pharma GmbH & Co.KG, priority 1998, dated 2000).

Data set [1] is described as follows: Pharmacokinetics in male rats after i.v. and oral administration. As to conditions: not fasted; for F: non-compartmental analysis (TopFit); for half-life: rat, plasma. The data set is classed as in vivo, Ratten. The procedure:
Pharmakokinetische Daten:
Für die Untersuchungen wurden männliche, ca. 200 g schwere Ratten (nicht nüchtern), verwendet. Zur intravenösen und oralen Applikation werden die Substanzen in einer angesäuerten wässerigen Lösung (pH 3) gelöst. Einzelne Bolus Injektionen (0.5 mg/kg i.v., 2.5 mg/kg p.o.) werden in die Schwanzvene injiziert (0.2 ml/200g) oder über eine Kanüle in den Magen gegeben (1 ml/200 g). Die Applikationslösungen werden analysiert, um die applizierte Dosis zu bestätigen. 0.5 ml Aliquots Blut werden vom retro-orbitalen Venenplexus unter kurzer Halothan-Betäubung mit heparinisierten Glass-Kapillaren nach folgendem Schema entnommen: • nach i.v. Applikation: 5 min, 15 min, 30 min, 1 h, 2 h, 4 h, 6 h, 8h; • nach oraler Applikation: 15 min, 1 h, 2 h, 4 h, 6 h, 8 h, 24 h, 32 h.
Die Proben werden zentrifugiert und das Plasma bis zur Analyse bei - 20°C gelagert. Die Proben-Vorbereitung erfolgt durch flüssig-flüssig Extraktion mit einem internen Standard. Die Plasmaextrakte werden mit Reversed Phase HPLC, gekoppelt mit einem Elektrospray-Tandem-Massenspektrometer analysiert. Die pharmakokinetischen Daten werden aus den entsprechenden PlasmaKonzentrationen durch Kompartiment-freie Analyse mit dem TopFit Programm bestimmt (Heinzel, G., Woloszczak, R., Thomann, P. TopFit 2.0 - Pharmacokinetic and pharmacodynamic data analysis, system for the PC, Gustav Fischer Verlag, Stuttgart, Jena, New York, 1993).

For data set [2], the target named is T1, Na^+/H^+-Austauscher (Homo sapiens, UniProt P19634).
T1 construct: HT-29-Zellen werden bei 37°C, 5% CO2 in Wachstumsmedium inkubiert; endogenous in cells; host or cells: HT-29 human colon cancer cells
T1 sequence (P19634 whole entry): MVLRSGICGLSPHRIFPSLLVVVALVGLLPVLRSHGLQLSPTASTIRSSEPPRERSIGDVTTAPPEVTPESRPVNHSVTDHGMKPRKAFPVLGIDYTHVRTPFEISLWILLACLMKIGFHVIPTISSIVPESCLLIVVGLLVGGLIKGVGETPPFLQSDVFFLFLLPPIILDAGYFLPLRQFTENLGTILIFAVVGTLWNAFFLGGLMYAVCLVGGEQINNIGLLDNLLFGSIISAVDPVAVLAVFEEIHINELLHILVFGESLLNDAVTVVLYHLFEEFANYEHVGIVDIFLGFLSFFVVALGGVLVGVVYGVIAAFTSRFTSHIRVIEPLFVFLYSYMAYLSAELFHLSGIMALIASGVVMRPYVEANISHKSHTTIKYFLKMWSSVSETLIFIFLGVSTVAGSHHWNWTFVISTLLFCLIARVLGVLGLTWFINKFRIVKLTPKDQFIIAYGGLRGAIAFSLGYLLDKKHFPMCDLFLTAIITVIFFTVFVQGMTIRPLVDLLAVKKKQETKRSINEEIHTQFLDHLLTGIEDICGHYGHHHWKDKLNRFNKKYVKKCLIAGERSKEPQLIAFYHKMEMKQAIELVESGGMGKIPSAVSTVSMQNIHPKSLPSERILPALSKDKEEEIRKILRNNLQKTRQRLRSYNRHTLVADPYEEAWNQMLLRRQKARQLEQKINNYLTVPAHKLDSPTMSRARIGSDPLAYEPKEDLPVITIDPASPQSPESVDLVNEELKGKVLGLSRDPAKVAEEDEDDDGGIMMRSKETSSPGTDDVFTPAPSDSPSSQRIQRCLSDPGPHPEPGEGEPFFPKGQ
The data set is described as follows: Inhibition of the Na+/H+ exchanger in human colon cancer cells (HT-29), BCECF fluorescence pH measurement. Format: cell-based. As to conditions: HT-29-Zellen; 4 min, 37°C, pH 7.0. The procedure: Inhibition des Na^+/H^+-Austauschers in humanen Darmkrebszellen (HT-29):
HT-29-Zellen werden bei 37°C, 5% CO2 in Wachstumsmedium inkubiert. Nach 3-5 Tagen wurde das Wachstumsmedium entfernt, die Zellen gewaschen und mit 7.5 µM BCECF-AM (pH-sensitiver Fluoreszenzfarbstoff) bei 37°C ohne CO2 beladen. Nach 30 min werden die Zellen gewaschen und mit folgendem Medium angesäuert: 70 mM Cholinchlorid, 20 mM NH4Cl, 1 mM MgCl2, 1.8 mM CaCl2, 5 mM Glucose und 15 mM HEPES, pH 7.5.
Nach 6 min Inkubation bei 37°C ohne CO2 werden die Zellen gewaschen und für 5 min mit Waschmedium inkubiert: 120 mM Cholinchlorid, 5 mM KCl, 1 mM MgCl2, 1.8 mM CaCl2, 5 mM Glucose und 15 mM MOPS, pH 7.0.
Das Waschmedium wird entfernt und Kontrollmedium mit oder ohne Testverbindung wird zugegeben: 120 mM NaCl, 5 mM KCl, 1 mM MgCl2, 1.8 mM CaCl2, 5 mM Glucose, 15 mM MOPS, pH 7.0.
Die Zellen werden 4 min bei 37°C ohne CO2 inkubiert und fluorimetrisch (CytoFluor 2350) vermessen. Die Fluoreszenz des Farbstoffes BCECF wird bei den Anregungswellenlängen 485 nm (pH-sensitiv) und 440 nm (nicht pH-sensitiv) und bei der Emissionswellenlänge 530 nm gemessen. Der cytoplasmatische pH wird aus dem Verhältnis der Fluoreszenzen bei 485 und 440 nm berechnet. Das Fluoreszenzverhältnis wird durch Messung des Fluoreszenzsignals nach Äquilibrierung von externem und internem pH mit Nigericin kalibriert.

Where [3] appears, read: iv, 0.5 mg/kg i.v., read-out: t1/2 (i.v.) (converted).
The mark [4] stands for this setting: po, 2.5 mg/kg p.o., read-out: t1/2 (p.o.) (converted).

Structures are written as SMILES. Where a name gives a salt, the structure may show the parent alone. Read-outs that look alike come from different tables or passages of the source.

Regarding `N=C(N)NC(=O)c1ccc(N2CCN(C(=O)c3ccc(F)cc3)CC2)c(C(F)(F)F)c1` [Beispiel 3, 4-(4-(4-Fluorphenylcarbonyl)-1-piperazinyl)-3-trifluormethylbenzoylguanidin-methansulfonat], in data set [1] (0.5 mg/kg i.v., 2.5 mg/kg p.o.), the F turned out to be 71. In addition, the half-life in data set [1] (setting [3]) is 3.1 h; in data set [1] (setting [4]), 5.4 h. In data set [2], this molecule had a 50% inhibitory concentration (IC50) of 38 nM.
`COc1cccc(C(=O)N2CCN(c3ccc(C(=O)NC(=N)N)cc3C(F)(F)F)CC2)c1` [Beispiel 1, 4-(4-(3-Methoxyphenylcarbonyl)-1-piperazinyl)-3-trifluormethylbenzoylguanidin-hydrochlorid]: half-maximal inhibition in data set [2] (IC50) required 76 nM.
The same measure, in the same setting: next, `Cc1cccc(C(=O)N2CCN(c3ccc(C(=O)NC(=N)N)cc3C(F)(F)F)CC2)c1` [Beispiel 8, 4-(4-(3-Methylphenylcarbonyl)-1-piperazinyl)-3-trifluormethylbenzoylguanidin-methansulfonat]: 61 nM; `N=C(N)NC(=O)c1ccc(N2CCN(C(=O)c3ccco3)CC2)c(C(F)(F)F)c1` [Beispiel 7, 4-(4-(2-Furylcarbonyl)-1-piperazinyl)-3-trifluormethyl-benzoylguanidinmethansulfonat]: 84 nM.
With `N=C(N)NC(=O)c1ccc(N2CCN(C(=O)c3ccccn3)CC2)c(C(F)(F)F)c1` [Beispiel 10, 4-(4-(2-Pyridylcarbonyl)-1-piperazinyl)-3-trifluormethyl-benzoylguanidindimethansulfonat], the IC50 in data set [2] is 79 nM.
In data set [1] (0.5 mg/kg i.v., 2.5 mg/kg p.o.), `N=C(N)NC(=O)c1ccc(N2CCN(C(=O)c3cccc(C(F)(F)F)c3)CC2)c(C(F)(F)F)c1` [Beispiel 5, 4-(4-(3-Trifluormethylphenylcarbonyl)-1-piperazinyl)-3-trifluormethylbenzoylguanidin-hydrochlorid] registered an F of 58. Moreover, the half-life in data set [1] (setting [3]) was 5.4 h; in data set [1] (setting [4]) it was 7.5 h. In data set [2], the IC50 was found to be 23 nM.
`N=C(N)NC(=O)c1ccc(N2CCN(C(=O)c3ccc[nH]3)CC2)c(C(F)(F)F)c1` [Beispiel 2, 4-(4-(2-Pyrrolylcarbonyl)-1-piperazinyl)-3-trifluormethylbenzoylguanidin-methansulfonat] showed a F in data set [1] (0.5 mg/kg i.v., 2.5 mg/kg p.o.) of 63. Moreover, the figures for the half-life in data set [1] (setting [3]) and in data set [1] (setting [4]) were 1.3 h and 5 h, respectively.
As for `COc1ccccc1C(=O)N1CCN(c2ccc(C(=O)NC(=N)N)cc2C(F)(F)F)CC1` [Beispiel 4, 4-(4-(2-Methoxyphenylcarbonyl)-1-piperazinyl)-3-trifluormethylbenzoylguanidin-hydrochlorid], it took 84 nM to reach half-maximal inhibition in data set [2] (IC50).
